Tested on: KRAS-mutant PDC multicell tumor spheroid viability
Experiment: Anticancer human tumor 521955-158-R2-J5-PDC patient-derived pancreatic carcinoma cell line growth inhibition [KRAS2]
Settings: for viability, T/C: stronger effect = lower value
Method in brief: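 KRAS-mutant tumor cells were grown as spheroids with HUVEC endothelial cells and human MSCs as stroma. Targeted agents were tested alone and with KRAS pathway inhibitors. Doses started at or near clinical Cmax, or 10 microM, descending half-log.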

[1] = curve of first compound, second compound 0.1 µM
[2] = curve of first compound, second compound 0.316 µM
[3] = curve of first compound, second compound 1 µM
[4] = curve of first compound, second compound 3.16 µM
[5] = curve of first compound, second compound 10 µM
[6] = second compound 0.1 µM, first compound 0.00316 µM
[7] = second compound 0.1 µM, first compound 0.01 µM
[8] = second compound 0.1 µM, first compound 0.0316 µM
[9] = second compound 0.1 µM, first compound 0.1 µM
[10] = second compound 0.1 µM, first compound 0.316 µM
[11] = second compound 0.1 µM, first compound 1 µM
[12] = second compound 0.316 µM, first compound 0.00316 µM
[13] = second compound 0.316 µM, first compound 0.01 µM
[14] = second compound 0.316 µM, first compound 0.0316 µM
[15] = second compound 0.316 µM, first compound 0.1 µM
[16] = second compound 0.316 µM, first compound 0.316 µM
[17] = second compound 0.316 µM, first compound 1 µM
[18] = second compound 1 µM, first compound 0.00316 µM
[19] = second compound 1 µM, first compound 0.01 µM
[20] = second compound 1 µM, first compound 0.0316 µM
[21] = second compound 1 µM, first compound 0.1 µM
[22] = second compound 1 µM, first compound 0.316 µM
[23] = second compound 1 µM, first compound 1 µM
[24] = second compound 3.16 µM, first compound 0.00316 µM
[25] = second compound 3.16 µM, first compound 0.01 µM
[26] = second compound 3.16 µM, first compound 0.0316 µM
[27] = second compound 3.16 µM, first compound 0.1 µM
[28] = second compound 3.16 µM, first compound 0.316 µM
[29] = second compound 3.16 µM, first compound 1 µM
[30] = second compound 10 µM, first compound 0.00316 µM
[31] = second compound 10 µM, first compound 0.01 µM
[32] = second compound 10 µM, first compound 0.0316 µM
[33] = second compound 10 µM, first compound 0.1 µM
[34] = second compound 10 µM, first compound 0.316 µM
[35] = second compound 10 µM, first compound 1 µM
[36] = second compound 0.1 µM, first compound 0.000316 µM
[37] = second compound 0.1 µM, first compound 0.001 µM
[38] = second compound 0.316 µM, first compound 0.000316 µM
[39] = second compound 0.316 µM, first compound 0.001 µM
[40] = second compound 1 µM, first compound 0.000316 µM
[41] = second compound 1 µM, first compound 0.001 µM
[42] = second compound 3.16 µM, first compound 0.000316 µM
[43] = second compound 3.16 µM, first compound 0.001 µM
[44] = second compound 10 µM, first compound 0.000316 µM
[45] = second compound 10 µM, first compound 0.001 µM
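Note: viability read after seven days of drug exposure.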

In the case of `CCN1CCN(Cc2ccc(Nc3ncc(F)c(-c4cc(F)c5nc(C)n(C(C)C)c5c4)n3)nc2)CC1` + CC1OCC2(CCN(c3cnc(Sc4ccnc(N)c4Cl)c(N)n3)CC2)C1N, the IC50 [1] is reported as greater than 1 µM, the IC50 [2] is reported as greater than 1 µM and the IC50 [3] is reported as greater than 1 µM. The IC50 [4] was greater than 1 µM, the IC50 [5] was greater than 1 µM and the viability, T/C [6] was 72.4%. The viability, T/C [7] was 87%, the viability, T/C [8] was 59% and the viability, T/C [9] was 61.5%. It also gave a viability, T/C [10] of 73.7%, a viability, T/C [11] of 66% and a viability, T/C [12] of 66.5%. It also gave a viability, T/C [13] of 70.6%, a viability, T/C [14] of 55.2% and a viability, T/C [15] of 57.2%. The viability, T/C [16] was 75.5%, the viability, T/C [17] was 61.4% and the viability, T/C [18] was 70.6%. For the same compound, the viability, T/C [19] was 59.5%, the viability, T/C [20] was 58.2% and the viability, T/C [21] was 60%. It also gave a viability, T/C [22] of 62.2%, a viability, T/C [23] of 68.8% and a viability, T/C [24] of 66.8%. The viability, T/C [25] was 67.9%, the viability, T/C [26] was 60.9% and the viability, T/C [27] was 60.8%. The viability, T/C [28] was 63.8%, the viability, T/C [29] was 60.1% and the viability, T/C [30] was 62.6%. It also gave a viability, T/C [31] of 71.8%, a viability, T/C [32] of 63.5% and a viability, T/C [33] of 61.7%. For the same compound, the viability, T/C [34] was 57.4% and the viability, T/C [35] was 50.2%.
In the case of `CNCc1ccccc1-c1csc(C(C)Nc2nc(C)nc3cc(OC)c(OC)cc23)c1` (stereo not drawn), the viability, T/C (compound 0.1 µM) is reported as 93.3% [middle of 17 runs], the viability, T/C (compound 0.316 µM) is reported as 93.4% [middle of 17 runs] and the viability, T/C (compound 10 µM) is reported as 0.16% [middle of 15 runs]. The IC50 (compound alone, run of 08/26/2021) was 1.68 µM [middle of 5 runs] and the IC50 (compound alone, run of 09/02/2021) was 1.82 µM [middle of 6 runs].
With `CC(C)NCC(C(=O)N1CCN(c2ncnc3c2C(C)CC3O)CC1)c1ccc(Cl)cc1` (stereo not drawn) the viability, T/C (compound 0.0316 µM) was 100% [middle of 5 runs], the viability, T/C (compound 0.1 µM) was 102% [middle of 5 runs] and the viability, T/C (compound 0.316 µM) was 83.8% [middle of 5 runs]. For the same compound, the viability, T/C (compound 1 µM) was 80.8% [middle of 5 runs], the viability, T/C (compound 3.16 µM) was 84.4% [middle of 5 runs] and the viability, T/C (compound 10 µM) was 66.7% [middle of 5 runs]. It also gave an IC50 (curve of compound) greater than 10 µM.
For `Cn1ncnc1[C@H]1c2n[nH]c(=O)c3cc(F)cc(c23)N[C@@H]1c1ccc(F)cc1` + CNCc1ccccc1-c1csc(C(C)Nc2nc(C)nc3cc(OC)c(OC)cc23)c1, the IC50 [1] was greater than 0.1 µM, the IC50 [2] was greater than 0.1 µM and the IC50 [3] was greater than 0.1 µM. The IC50 [4] was less than 0.000316 µM, the IC50 [5] was less than 0.000316 µM and the viability, T/C [36] was 101%. It also gave a viability, T/C [37] of 94.8%, a viability, T/C [6] of 84.5% and a viability, T/C [7] of 80.2%. It also gave a viability, T/C [8] of 81.7%, a viability, T/C [9] of 81% and a viability, T/C [38] of 104%. The viability, T/C [39] was 81.2%, the viability, T/C [12] was 82.1% and the viability, T/C [13] was 76.7%. It also gave a viability, T/C [14] of 81.8%, a viability, T/C [15] of 80.3% and a viability, T/C [40] of 114%. The viability, T/C [41] was 119%, the viability, T/C [18] was 112% and the viability, T/C [19] was 93.8%. The viability, T/C [20] was 91.5%, the viability, T/C [21] was 89.6% and the viability, T/C [42] was 2.53%. It also gave a viability, T/C [43] of 1.22%, a viability, T/C [24] of 2.97% and a viability, T/C [25] of 1.01%. The viability, T/C [26] was 0.7%, the viability, T/C [27] was 0.26% and the viability, T/C [44] was 0.78%. For the same compound, the viability, T/C [45] was 0.71%, the viability, T/C [30] was 0.43% and the viability, T/C [31] was 0.21%. For the same compound, the viability, T/C [32] was 0.16% and the viability, T/C [33] was 1.36%.
With `CCNC(=O)CC1N=C(c2ccc(Cl)cc2)c2cc(OC)ccc2-n2c(C)nnc21` (stereo not drawn) + COc1cc2nc(C)nc(NC(C)c3cc(N)cc(C(F)(F)F)c3)c2cc1OC1CCOC1 the IC50 [1] was 0.405 µM, the IC50 [2] was 0.293 µM and the IC50 [3] was 0.333 µM. The IC50 [4] was 0.32 µM, the IC50 [5] was 0.418 µM and the viability, T/C [8] was 90%. The viability, T/C [9] was 79.5%, the viability, T/C [10] was 52.6% and the viability, T/C [11] was 36.7%. The viability, T/C (second compound 0.1 µM, first compound 3.16 µM) was 32.4%, the viability, T/C (second compound 0.1 µM, first compound 10 µM) was 26.9% and the viability, T/C [14] was 104%. The viability, T/C [15] was 89.9%, the viability, T/C [16] was 47% and the viability, T/C [17] was 30.8%. For the same compound, the viability, T/C (second compound 0.316 µM, first compound 3.16 µM) was 30%, the viability, T/C (second compound 0.316 µM, first compound 10 µM) was 26.6% and the viability, T/C [20] was 89.2%. The viability, T/C [21] was 85.2%, the viability, T/C [22] was 50.1% and the viability, T/C [23] was 34.2%. The viability, T/C (second compound 1 µM, first compound 3.16 µM) was 28.2%, the viability, T/C (second compound 1 µM, first compound 10 µM) was 28% and the viability, T/C [26] was 98.5%. It also gave a viability, T/C [27] of 87.7%, a viability, T/C [28] of 48.4% and a viability, T/C [29] of 39.6%. It also gave a viability, T/C (second compound 3.16 µM, first compound 3.16 µM) of 28%, a viability, T/C (second compound 3.16 µM, first compound 10 µM) of 30.8% and a viability, T/C [32] of 105%. It also gave a viability, T/C [33] of 96.5%, a viability, T/C [34] of 49.9% and a viability, T/C [35] of 33.4%. It also gave a viability, T/C (second compound 10 µM, first compound 3.16 µM) of 18.6% and a viability, T/C (second compound 10 µM, first compound 10 µM) of 8.29%.
With `CC(C)n1nc(-c2ccc3oc(N)nc3c2)c2c(N)ncnc21` the viability, T/C (compound 0.000316 µM) was 101% [middle of 5 runs], the viability, T/C (compound 0.001 µM) was 87.6% [middle of 5 runs] and the viability, T/C (compound 0.00316 µM) was 66.9% [middle of 5 runs]. For the same compound, the viability, T/C (compound 0.01 µM) was 48.9% [middle of 5 runs], the viability, T/C (compound 0.0316 µM) was 35.8% [middle of 5 runs] and the viability, T/C (compound 0.1 µM) was 25.9% [middle of 5 runs]. For the same compound, the IC50 (curve of compound) was 9.42 nM [middle of 5 runs].
`CN(C)C/C=C/C(=O)Nc1cc2c(Nc3ccc(F)c(Cl)c3)ncnc2cc1O[C@H]1CCOC1` + CNCc1ccccc1-c1csc(C(C)Nc2nc(C)nc3cc(OC)c(OC)cc23)c1 showed an IC50 [1] greater than 0.1 µM, an IC50 [2] greater than 0.1 µM and an IC50 [3] greater than 0.1 µM. The IC50 [4] was 0.00223 µM, the IC50 [5] was less than 0.000316 µM and the viability, T/C [36] was 107%. The viability, T/C [37] was 104%, the viability, T/C [6] was 93.3% and the viability, T/C [7] was 91%. The viability, T/C [8] was 88.9%, the viability, T/C [9] was 77.3% and the viability, T/C [38] was 110%. For the same compound, the viability, T/C [39] was 93.5%, the viability, T/C [12] was 81.1% and the viability, T/C [13] was 92.6%. For the same compound, the viability, T/C [14] was 98.5%, the viability, T/C [15] was 64.4% and the viability, T/C [40] was 113%. It also gave a viability, T/C [41] of 120%, a viability, T/C [18] of 100% and a viability, T/C [19] of 100%. For the same compound, the viability, T/C [20] was 97%, the viability, T/C [21] was 97.7% and the viability, T/C [42] was 114%. It also gave a viability, T/C [43] of 116%, a viability, T/C [24] of 0.23% and a viability, T/C [25] of 0.26%. The viability, T/C [26] was 85.9%, the viability, T/C [27] was 1% and the viability, T/C [44] was 0.27%. The viability, T/C [45] was 0.27%, the viability, T/C [30] was 0.18% and the viability, T/C [31] was 0.16%. It also gave a viability, T/C [32] of 0.23% and a viability, T/C [33] of 0.24%.
`COC(=O)c1ccc2c(C(=Nc3ccc(N(C)C(=O)CN4CCN(C)CC4)cc3)c3ccccc3)c(O)[nH]c2c1` was tested, and the viability, T/C (compound 0.0316 µM) was 102% [middle of 5 runs], the viability, T/C (compound 0.1 µM) was 105% [middle of 5 runs] and the viability, T/C (compound 10 µM) was 0.29% [middle of 5 runs]. For the same compound, the IC50 (curve of compound) was 2.06 µM [middle of 5 runs].
